As a reminder, the Papp is the rate of passage across a membrane or cell layer, normalised by area and donor concentration. The low end stands for poor permeation, the high end for ready permeation.

For the data set the following is noted: pampa; pH 5.0; 30.0 min; 50.0 µM.
`CCOC(=O)c1ccc(NC(=O)N2Cc3[nH]cnc3C[C@H]2c2nc(C(C)C)no2)cc1` came in with a Papp of 16.2 ×10⁻⁶ cm/s. `CCCc1oc2ccc(NS(=O)(=O)c3ccc(OC)cc3)cc2c1C(=O)OCC`: the apparent permeability coefficient (Papp) worked out at 1.84 ×10⁻⁶ cm/s. With `COc1ccc(CCNc2ncnc3onc(C)c23)c(OC)c1` the figure was 540 ×10⁻⁶ cm/s; with `COc1ccccc1N1CCN(CCN(C(=O)c2ccc(I)cc2)c2ccccn2)CC1`, 758 ×10⁻⁶ cm/s. With `Cc1ccccc1NC(=O)Nc1cccs1` the figure was 209 ×10⁻⁶ cm/s. The same measure for `CCOc1ccc(-c2cn3c(n2)sc2cc(C(=O)NCCCN(CC)CC)ccc23)cc1`: 114 ×10⁻⁶ cm/s. On to `CN1Cc2c(cc(N3CCOCC3)nc2-c2ccccc2OC(F)(F)F)C1=O`, for which the Papp is more than 1000 ×10⁻⁶ cm/s.

Take `COc1cc2c(cc1Oc1cccc(N(C)C)c1)NC(=O)C21CCN(c2cnccn2)CC1`: the apparent permeability coefficient (Papp) was more than 1000 ×10⁻⁶ cm/s. The same measure for `COc1ccc(S(=O)(=O)N(CC(=O)Nc2ccc(C)cc2)c2ccc(C)cc2)cc1OC`: 663 ×10⁻⁶ cm/s; for `Cc1ccc(-c2c(CN3CCN(c4cccc(C(F)(F)F)c4)CC3)csc2C)cc1`: 35 ×10⁻⁶ cm/s; for `CCCCc1ccc(NC(=O)c2ccc3c(c2)N(S(C)(=O)=O)CC3)cc1`: 385 ×10⁻⁶ cm/s. `CN1CCCC(CC2c3ccccc3Sc3ccccc32)C1` (stereo unspecified) displayed a Papp of more than 1000 ×10⁻⁶ cm/s. As to `Cc1cnc(SCc2ccccn2)nc1C1CCCN(C(=O)c2scc3c2CCCC3)C1` (stereo unspecified), the apparent permeability coefficient (Papp) was more than 1000 ×10⁻⁶ cm/s. The same measure for `Cc1ccc(Cl)cc1NS(=O)(=O)c1cc2c(cc1F)NC(=O)CC2`: 617 ×10⁻⁶ cm/s; for `CCN(CC)C(=O)c1coc(COc2ccc3c(c2)C(c2cccc(F)c2)N(C(=O)C(C)C)CC3)n1` (stereo unspecified): more than 1000 ×10⁻⁶ cm/s; for `O=C(O)c1ccc(-c2c[nH]c3ncc(-c4ccccc4)cc23)cc1C1CCCC1`: 400 ×10⁻⁶ cm/s.

In the case of `COc1cccc2c1CCCC2CCCN1CCN(C2CCCCC2)CC1` (stereo unspecified), the Papp worked out at 777 ×10⁻⁶ cm/s. `COc1cc(C(=O)NC2CCCc3c2[nH]c2ccccc32)cc(OC)c1OC` (stereo unspecified) came in with an apparent permeability coefficient (Papp) of 926 ×10⁻⁶ cm/s.

For `COc1ccc(-n2nc(C3CCN([S+](=O)([O-])c4c(C)noc4C)CC3)[nH]c2=O)cc1`, the Papp was 308 ×10⁻⁶ cm/s. On to `COCCNC(=O)[C@H]1C[C@H](Oc2ccccc2)CN1Cc1ccc2[nH]ccc2c1`, for which the Papp was found to be 186 ×10⁻⁶ cm/s. With `CC(NCc1ccc2c(c1)nc(NC(=O)c1ccc(-c3cn[nH]c3)s1)n2CC(C)(C)O)C(C)(C)C` (stereo unspecified) the figure was 4.16 ×10⁻⁶ cm/s; with `CS(=O)(=O)c1ccc(-c2cnc(NCc3ccco3)n3cnnc23)cc1`, 13.6 ×10⁻⁶ cm/s.

Regarding `CCC(CC)c1cc([C@H]2CN3CC[C@H]2C[C@@H]3CNC(=O)Cc2cccs2)nc(-c2ccncc2)n1`, the Papp came out at 320 ×10⁻⁶ cm/s. With `O=C(Cc1ccc(O)cc1)N1CC(CNc2ccccc2)C2(C1)CN(c1ccccc1)C2` (stereo unspecified) the figure was 616 ×10⁻⁶ cm/s.

For `Cc1ccc(-c2nc(C)c(C(=O)Nc3ccc4c(c3)C(=O)N3CCC[C@H]3C(=O)N4)s2)cc1`, the apparent permeability (Papp) is 48.2 ×10⁻⁶ cm/s.

`CCC(=O)NC(c1ccc(OC)cc1)c1cc(Cl)c2cccnc2c1O` (stereo unspecified) yielded a Papp of 5.75 ×10⁻⁶ cm/s. The same measure for `CCOc1ccc(CNC(=O)CCCn2nc(C)c3c(C)n(-c4ccc(C)cc4)nc3c2=O)cc1`: 582 ×10⁻⁶ cm/s; for `COCC(C)NCc1cc2ccc(OC)cc2nc1N1CCN(c2ccc(F)cc2)CC1` (stereo unspecified): 576 ×10⁻⁶ cm/s; for `COc1cc2c(c(OC)c1OC)-c1ccc(SC)c(=O)cc1C(N)CC2` (stereo unspecified): 55 ×10⁻⁶ cm/s.

Compound `CC(C(O)c1ccc(O)cc1)N1CCC(Cc2ccccc2)CC1` (stereo unspecified) registered a Papp of 40.6 ×10⁻⁶ cm/s. With `CC(C)Oc1ccc(C(=O)Nc2ccc3c(c2)CCCN3C(=O)c2cccs2)cc1` the figure was 800 ×10⁻⁶ cm/s.

Compound `O=C1Nc2ccc(-c3cccc(C(F)(F)F)c3)cc2C(=O)N2CCN(C(=O)COc3ccccc3)C[C@H]12` displayed a Papp of 859 ×10⁻⁶ cm/s. The same measure for `O=C(NC[C@H]1Cn2c(-c3ccc(Cl)cc3)cnc2CO1)C1CCCC1`: 19.4 ×10⁻⁶ cm/s; for `CCCCN(C)C(=O)c1c(C)sc2ccn(CCC)c(=O)c12`: 113 ×10⁻⁶ cm/s. Compound `COc1ccccc1-c1nc(NCc2ccc(-c3cccnc3)cc2)c2ccccc2n1` came in with an apparent permeability (Papp) of 727 ×10⁻⁶ cm/s. The same measure for `Cc1ccc(CN2CCOC[C@H]2c2ncc(-c3cccc(F)c3)[nH]2)cc1`: 995 ×10⁻⁶ cm/s; for `CN1CCC(N(Cc2cccs2)c2ccccc2)CC1`: 254 ×10⁻⁶ cm/s.

Consider `COc1ccccc1-c1[nH]nc2ncc(-c3ccc(C)cc3)nc12`, for which the apparent permeability coefficient (Papp) was found to be 1.92 ×10⁻⁶ cm/s. With `COc1cccc(Cn2c(=O)n(-c3cccc(Cl)c3C)c(=O)c3c4c(sc32)CN(C(C)=O)CC4)c1` the figure was more than 1000 ×10⁻⁶ cm/s; with `Fc1ccc(CNc2cc3c(cn2)CN(Cc2ccncc2)CCN3)cc1`, 14.3 ×10⁻⁶ cm/s; with `NCC(=O)Nc1cncc(-c2nn3c(=O)cc(N4CCNCC4)nc3s2)c1`, 1.07 ×10⁻⁶ cm/s.

`CCOc1ccc(NC(=O)CC2C(=O)N(c3ccc(F)cc3)C(=O)N2CCc2sccc2C)cc1` (stereo unspecified) returned an apparent permeability coefficient (Papp) of 831 ×10⁻⁶ cm/s. With `O=C(NCc1ccccc1)c1nc(S(=O)(=O)Cc2ccc(F)cc2)ncc1Cl` the figure was 296 ×10⁻⁶ cm/s; with `CCOc1ccc(CCNC(=O)c2cccc(C(=O)c3ccccc3)c2)cc1OCC`, more than 1000 ×10⁻⁶ cm/s. As for `O=C(O)c1ccc(N2C(=O)/C(=C/c3ccc(-c4ccc([N+](=O)[O-])cc4)o3)C=C2c2ccccc2)cc1`, the apparent permeability (Papp) amounted to 37.5 ×10⁻⁶ cm/s. On to `Nc1c(S(=O)(=O)c2cccs2)c2nc3ccccc3nc2n1Cc1ccccc1`, for which the Papp was more than 1000 ×10⁻⁶ cm/s.

The values are drawn from PubChem BioAssay AID1645871.
